Measured values taken from patent publication US9468212B2, “Antifungal compositions” (DSM IP ASSETS B.V., priority 2013, dated 2016).
Several values for one entry are separate records, joined by “and”; a condition that tells them apart may be missing. Identical values can stand only once.

Experiments:
[1] = system: Penicillium italicum; assay: Treatment of oranges: wounded, inoculated with Penicillium italicum, wound treated with antifungal composition (Examples 7-9); type: in vivo; conditions: for Observed antifungal activity O (%) / Number of moulded oranges/total number of 8 oranges: oranges, 20° C.
Description: The expected antifungal activity (E in %) of the combined antifungal composition comprising both active ingredients was calculated according to the Colby equation (Colby, 1967): E=X+Y−[(X·Y)/100] wherein X and Y are the observed antifungal activities (in %) of the individual active ingredients X and Y, respectively.
Eight fresh, organic oranges were used per treatment. Each orange was soaked in a 180 ppm hypochlorite solution for 10 minutes, then rinsed thoroughly with fresh tap water and dried. The peel of each disinfected orange was wounded once using a cork borer according to the method described by de Lapeyre de Bellaire and Dubois (1987). Subsequently, each wound was inoculated with 10 μl of a Penicillium italicum suspension containing 5×10^5 of spores/ml. After incubation for 3 hours at 20° C., each wound and the orange peel area of 1 cm around the wound was treated with in total […] of a freshly prepared aqueous antifungal composition comprising either 500 ppm natamycin (DSM Food Specialties, Delft, The Netherlands), 300 ppm fludioxonil or both. Each antifungal composition also comprised 3.2% (w/w) beeswax, 0.8% (w/w) glycerol, 0.7% (w/w) polyoxyethylene sorbitan monostearate (Tween 60), 0.1% (w/w) polyoxyethylene sorbitan monooleate (Tween 80), 0.05% (w/w) methylhydroxyethyl-cellulose (MHEC), 0.03% (w/w) anti-foaming agent, 0.02% (w/w) xanthan gum, 0.02% (w/w) citric acid, 0.01% (w/w) lactic acid and 0.01% potassium sorbate. A composition without natamycin or fludioxonil was used as control.
The treated oranges were incubated in a closed box in the dark at 20° C. and assessed on mould growth during a 27-day incubation period.
The experiment was conducted as described in Example 7, except for the fact that each wounded and inoculated orange was treated with 150 μl of a freshly prepared aqueous antifungal composition comprising either 250 ppm natamycin (DSM Food Specialties, Delft, The Netherlands), 100 ppm fludioxonil or both. During incubation, the treated oranges were assessed on mould growth according to the two methods described in Example 5.
The experiment was conducted as described in Example 7, except for the fact that each wounded and inoculated orange was treated with 150 μl of a freshly prepared aqueous antifungal composition comprising either 500 ppm natamycin (DSM Food Specialties, Delft, The Netherlands), 400 ppm fenpiclonil or both. During a 23-day incubation period, the treated oranges were assessed on mould growth according to the two methods described in Example 5.

[2] = system: Botrytis cinerea; assay: Treatment of sweet peppers: wounded, inoculated with Botrytis cinerea, wound treated with antifungal composition (Example 10); type: in vivo; conditions: 400 ppm natamycin, 600 ppm fenpiclonil or both, 20° C.
Description: Ten fresh, organic sweet peppers were used per treatment. The peel of each sweet pepper was wounded once using a cork borer according to the method described by de Lapeyre de Bellaire and Dubois (1987). Subsequently, each wound was inoculated with 10 μl of a Botrytis cinerea suspension containing 1×10^5 of spores/ml. After incubation for 3 hours at 20° C., each wound and the skin area of 0.5 cm around the wound was treated with in total 75 μl of a freshly prepared aqueous antifungal composition comprising either 400 ppm natamycin (DSM Food Specialties, Delft, The Netherlands), 600 ppm fenpiclonil or both. Each antifungal composition also comprised 3.2% (w/w) beeswax, 0.8% (w/w) glycerol, 0.7% (w/w) polyoxyethylene sorbitan monostearate (Tween 60), 0.2% (w/w) polyoxyethylene sorbitan monooleate (Tween 80), 0.05% (w/w) methylhydroxyethyl-cellulose (MHEC), 0.03% (w/w) anti-foaming agent, 0.02% (w/w) xanthan gum, 0.02% (w/w) citric acid, 0.01% (w/w) lactic acid and 0.01% potassium sorbate. A composition without natamycin or fenpiclonil was used as control.
The treated sweet peppers were incubated in a closed box in the dark at 20° C. and assessed on mould growth during incubation. The antifungal activity (in %) of the individual and combined active ingredients was determined by calculating the reduction in mould growth observed on the sweet peppers treated with the antifungal composition in comparison to the mould growth on the sweet peppers treated with the control composition according to the Colby method (Colby, 1967) as described in Example 5.

[3] = 250 ppm natamycin, 100 ppm fludioxonil or both, 26-27 days
[4] = 250 ppm natamycin, 100 ppm fludioxonil or both, 19 days
[5] = 250 ppm natamycin, 100 ppm fludioxonil or both, 20 days
[6] = 250 ppm natamycin, 100 ppm fludioxonil or both, 21 days
[7] = 250 ppm natamycin, 100 ppm fludioxonil or both, 22 days
[8] = 250 ppm natamycin, 100 ppm fludioxonil or both, 23 days
[9] = 250 ppm natamycin, 100 ppm fludioxonil or both, 25 days
[10] = 250 ppm natamycin, 100 ppm fludioxonil or both, Day 14-18
[11] = 250 ppm natamycin, 100 ppm fludioxonil or both, Day 19-22
[12] = 250 ppm natamycin, 100 ppm fludioxonil or both, Day 23-27
[13] = 500 ppm natamycin, 300 ppm fludioxonil or both, 22-27 days
[14] = 500 ppm natamycin, 300 ppm fludioxonil or both, 18 days
[15] = 500 ppm natamycin, 300 ppm fludioxonil or both, 19 days
[16] = 500 ppm natamycin, 300 ppm fludioxonil or both, 20 days
[17] = 500 ppm natamycin, 300 ppm fludioxonil or both, 21 days
[18] = 500 ppm natamycin, 300 ppm fludioxonil or both, Day 18-27

SMILES: C[C@@H]1C/C=C/C=C/C=C/C=C/[C@H](O[C@@H]2O[C@H](C)[C@@H](O)[C@H](N)[C@@H]2O)C[C@@H]2O[C@](O)(C[C@@H](O)C[C@H]3O[C@@H]3/C=C/C(=O)O1)C[C@H](O)[C@H]2C(=O)O [Natamycin, natamycin]
- Observed antifungal activity O (%) [1, 3]: 17%
- Observed antifungal activity O (%) [1, 4]: 36%
- Observed antifungal activity O (%) [1, 5]: 34%
- Observed antifungal activity O (%) [1, 6]: 32%
- Observed antifungal activity O (%) [1, 7]: 29%
- Observed antifungal activity O (%) [1, 8]: 25%
- Observed antifungal activity O (%) [1, 9]: 19%
- Number of moulded oranges/total number of 8 oranges [1, 10]: 6/8
- Number of moulded oranges/total number of 8 oranges [1, 11]: 7/8
- Number of moulded oranges/total number of 8 oranges [1, 12]: 7/8
- Observed antifungal activity O (%) [1, 13]: 14%
- Observed antifungal activity O (%) [1, 14]: 32%
- Observed antifungal activity O (%) [1, 15]: 29%
- Observed antifungal activity O (%) [1, 16]: 20%
- Observed antifungal activity O (%) [1, 17]: 16%
- Number of moulded oranges/total number of 8 oranges [1, 18]: 6 and 6/8
- Observed antifungal activity O (%) ([1]; 500 ppm natamycin, 400 ppm fenpiclonil or both, 22-23 days): 14%
- Observed antifungal activity O (%) ([1]; 500 ppm natamycin, 400 ppm fenpiclonil or both, 12 days): 55%
- Observed antifungal activity O (%) ([1]; 500 ppm natamycin, 400 ppm fenpiclonil or both, 13 days): 52%
- Observed antifungal activity O (%) ([1]; 500 ppm natamycin, 400 ppm fenpiclonil or both, 14 days): 48%
- Observed antifungal activity O (%) ([1]; 500 ppm natamycin, 400 ppm fenpiclonil or both, 15 days): 45%
- Observed antifungal activity O (%) ([1]; 500 ppm natamycin, 400 ppm fenpiclonil or both, 16 days): 43%
- Observed antifungal activity O (%) ([1]; 500 ppm natamycin, 400 ppm fenpiclonil or both, 18 days): 32%
- Observed antifungal activity O (%) ([1]; 500 ppm natamycin, 400 ppm fenpiclonil or both, 19 days): 29%
- Observed antifungal activity O (%) ([1]; 500 ppm natamycin, 400 ppm fenpiclonil or both, 20 days): 20%
- Observed antifungal activity O (%) ([1]; 500 ppm natamycin, 400 ppm fenpiclonil or both, 21 days): 16%
- Number of moulded oranges/total number of 8 oranges ([1]; 500 ppm natamycin, 400 ppm fenpiclonil or both, Day 14-15): 5 and 5/8
- Number of moulded oranges/total number of 8 oranges ([1]; 500 ppm natamycin, 400 ppm fenpiclonil or both, Day 16): 5/8
- Number of moulded oranges/total number of 8 oranges ([1]; 500 ppm natamycin, 400 ppm fenpiclonil or both, Day 18): 6/8
- Number of moulded oranges/total number of 8 oranges ([1]; 500 ppm natamycin, 400 ppm fenpiclonil or both, Day 19-23): 6/8
- Observed antifungal activity O (%) ([2]; 47 days): 15%
- Observed antifungal activity O (%) ([2]; 48 days): 6%
- Observed antifungal activity O (%) ([2]; 49 days): 4%
- Observed antifungal activity O (%) ([2]; 50 days): 3%

SMILES: N#Cc1c[nH]cc1-c1cccc2c1OC(F)(F)O2 [Fludioxonil, fludioxonil]
- moulded oranges of the 8 oranges ([1]; 250 ppm natamycin, 100 ppm fludioxonil or both, after 14 through 27 days of incubation): 8
- Observed antifungal activity O (%) [1, 3]: 0%
- Observed antifungal activity O (%) [1, 4]: 9%
- Observed antifungal activity O (%) [1, 5]: 2%
- Observed antifungal activity O (%) [1, 6]: 0%
- Observed antifungal activity O (%) [1, 7]: 0%
- Observed antifungal activity O (%) [1, 8]: 0%
- Observed antifungal activity O (%) [1, 9]: 0%
- Number of moulded oranges/total number of 8 oranges [1, 10]: 8/8
- Number of moulded oranges/total number of 8 oranges [1, 11]: 8/8
- Number of moulded oranges/total number of 8 oranges [1, 12]: 8/8
- Observed antifungal activity O (%) [1, 13]: 17%
- Observed antifungal activity O (%) [1, 14]: 17%
- Observed antifungal activity O (%) [1, 15]: 17%
- Observed antifungal activity O (%) [1, 16]: 17%
- Observed antifungal activity O (%) [1, 17]: 17%
- Number of moulded oranges/total number of 8 oranges [1, 18]: 7 and 7/8
